These results are taken from patent US10154996B2, “Fungicidal agent” (priority 2014, dated 2018).

For series [1], the system named is Aspergillus niger and Penicillium notatum. The series can be described thus: Protection of construction wood against fungal attacks. The settings on record: 5 days at 30° C.; for growth of test organisms on the boards: humid environment. How it is done:
To test the preparation boards by the dimensions of 20×40×2 cm were used. The boards were divided into three groups. Group 1: the boards were impregnated with a 0.3% aqueous solution of the presented formulation. The impregnation was carried out by twofold application of the solution by means of a diffuser with an intermediate drying. Group 2: the boards were impregnated with a 0.02% aqueous solution of the prototype preparation. The impregnation was carried out by twofold application of the solution by means of a diffuser with an intermediate drying. Group 3 (control): the boards were impregnated with distilled water. The impregnation was carried out by twofold application of water by means of a diffuser with an intermediate drying. The boards dried after treatment were soaked in water for two hours, after which they were coated with Aspergillus niger and Penicillium notatum fungi cultures at opposite ends of one side. The boards were placed in thermostats for 5 days at the temperature of 30° C. in a humid environment. After incubation, the boards were visually inspected and inoculations were made from their surface onto a nutrient medium (Sabouraud).

For a further series, the system named is Candida fungi. Briefly: Treatment of vulvovaginal candidiasis in patients. It counts as in vivo. The settings on record: douchings morning and evening, 7 days. How it is done: Treatment of Vulvovaginal Candidiasis. In the experiment, the patients, who suffered vulvovaginal candidiasis caused by Candida fungi, were treated using the following aqueous solutions: 1) 0.1% solution of the presented drug (3 persons), 2) 0.002% solution of the prototype drug (3 people). The treatment in the form of dualfold (in the morning and in the evening) douchings was performed for 7 days. The treatment efficacy was assessed by the clinical presentation and the results mycological examination (inoculations on Saburo medium).

The next series deals with Aspergillus niger. The series can be described thus: Aspergillus pneumonia in mice, lung colonization after inhalation treatment. The series is classed as in vivo, white scrub mice. As to the method: The tests were conducted on white scrub mice (female, 6-8 weeks) received from “Rappolovo” breeding nursery (Leningrad reg.), which were kept under supervision for two weeks prior to the experiments on a standard diet in regulated vivarium conditions. Selection of the animals for the experiment group was conducted by the random selection method. For propagation of aspergillus pneumonia, the white scrub mice received a single intraperitoneal injection of a cyclophosphamide solution (150 mg/kg). After 3 days, the mice received a single intraperitoneal injection of a hydrocortisone solution (250 mg/kg). Twenty-four hours after administration of hydrocortisone the mice were intranasally infected with a suspension of Aspergillus niger (approximately 10^7 cells/ml) under ether narcosis. On day 5 after infection 5 animals from each group were taken to study lung colonization (euthanasia in the rodents was performed by overdose of ether). Lung tissues were used to prepare homogenates, in which the titer of Aspergillus fungi was determined. Observation over the remaining mice was carried out for 14 days after infection to record their mortality. The following groups of animals infected with Aspergillus niger were formed in the experiment. 1. Control groups: K1, K2, K3; the animals were exposed to an aerosol of isotonic sodium chloride solution. 2. Groups E1, E2, E3; the animals were administered a 0.1% aqueous solution of the presented preparation in the form of inhalations. 3. Groups P1, P2; the animals were administered an aqueous solution of the prototype fungicidal agent in the form of inhalations in concentrations of 0.002% and 0.001% respectively. The animals were placed into an aerosol chamber (12 liters) for 30 minutes, during which period 500 mL of air pass through their lungs. “OMRON U1” (Japan) ultrasonic nebulizer was used was used as an aerosol generator. To maintain a constant aerosol concentration in the chamber, a pneumatic vortex generator was used in the pulsed spraying mode ensuring a stable aerosol with particle size of 3 microns. The animals were placed in immobilization containers and exposed to the obtained aerosol for 30 minutes 1 time per day for 3 days starting from day 1 after the infection. Samples of homogenized lung tissue were used to prepare a number of successive dilutions followed by sowing on Saburo medium.

The nature of the next series: Solubility in water. The settings on record: for solubility in water: maximum concentration in water. It counts as physicochemical. The text has this:
(§1) However, this compound is very poorly soluble in aqueous media and in fats. The maximum value of solubility of the known drug in water is 0.002%, and for fats it is no more than 0.001% (octanol, which is a common model of lipids). […] Solutions with such concentration of the active substance are not sufficiently effective. At the same time the task of improvement of efficiency of use of a fungicidal agent in the form of solutions for use in human and veterinary medicine in the form of injections and inhalations and for treatment of a variety of materials and agricultural products is extremely urgent.

Series [2] in a line: Solubility in fats / oil solutions. The series is classed as physicochemical.
Description: as §1

The test system of series [3] is Pityrosporum orbiculare-Malassezia furfur. The series can be described thus: Treatment of scaly skin disease (Tinea versicolor, Pityriasis versicolor) in patients. The series is classed as in vivo. Conditions: cotton swab 2 times a day, 7 days. How it is done: Treatment of a Fungal Disease of the Skin—Scaly Skin Disease (Tinea Versicolor, Pityriasis versicolor). The disease is caused by a fungus called Pityrosporum orbiculare-Malassezia furfur (mycelial form). The following was prepared for the study: A 0.1% oil (olive oil) solution of the presented preparation and a 0.002% aqueous solution of the prototype substance. As a reference olive oil was used. The study included three groups of patients. Each group included 2 patients with this pathology. Treatment duration was 7 days. The drug was applied with a cotton swab 2 times a day—in the morning and in the evening.

The subject of series [4] is fungi of the Microsporum genus. The series can be described thus: Treatment of ringworm in cats. It counts as in vivo. The text has this: The preparation was used in treatment of ringworm in cats (two animals) caused by fungi of the Microsporum genus and characterized by appearance of small round bald patches on the face and ears of the animal. The preparation in the form of a 0.1% aqueous solution was applied onto the affected area three times a day for 6 days.

A further series has as its system Leveillula taurica. Briefly: Treatment of powdery mildew on tuberous begonias. The series is classed as in vivo, Begonia tuberosa hybridum. Conditions: spray of 0.1% aqueous solution once a day for 7 days. As to the method:
The study was conducted on tuberous begonias (Begonia tuberosa hybridum), infected with powdery mildew. Powdery mildew affects many plants, including trees and shrubs. Powdery mildew affects chrysanthemums, begonias, roses; at that a white, sometimes darkening, plaque appears green parts of the plant. The disease is transmitted by airborne spores. The tested plants were infected with spores of a fungus (Leveillula taurica) when exposed up to appearance of a white plaque on the leaves. Three leaves on each plant were infected. After appearance of the plaque the plants in control group (three plants) were isolated from the three plants treated with a spray of a 0.1% aqueous solution of the presented preparation. The treatment was performed once a day for 7 days. After the treatment was complete, observation over the plants was continued for another three weeks.

[5] abbreviates: boards impregnated with 0.02% aqueous solution.
Where [6] appears, read: lung homogenate day 5, 0.001% aqueous solution, inhalation, group P2.
Where [7] appears, read: lung homogenate day 5, 0.002% aqueous solution, inhalation, group P1.
Setting [8] is: boards impregnated with 0.3% aqueous solution.
Where [9] appears, read: 0.1% aqueous solution on affected area three times a day for 6 days.

Values joined by “and” are separate entries in the source; they are usually repeats but may differ in a detail not shown here. Equal values may be shown once.

Consider “2.4-dioxo-5-(2-hydroxy-3.5-dichlorobenzylidene)amino-1.3-pyrimidine [Prototype, reference compound]”, for which, in series [1] (setting [5]), the “growth from inoculations on nutrient medium (Sabouraud)” value is given as “later spread in the nutrient medium” and the “growth of test organisms on the boards” value is “a growth of the inoculated test bacteria can be detected”. In addition, in the series with Candida fungi (0.002% aqueous solution), the Complete cure entry is recorded as “Not reached” and the “Mycological cure (reduction in the number of fungi inoculated on a solid medium)” value is 1.7-fold reduction in the number of. In addition, in the series with Aspergillus niger (setting [6]), the “Number of colonies (in different dilutions) 10^−2” value stood at 37 and the “Number of colonies (in different dilutions) 10^−4” value is 2. Moreover, in the series with Aspergillus niger (setting [7]), the “Number of colonies (in different dilutions) 10^−2” value is 26 and the “Number of colonies (in different dilutions) 10^−4” value is 1. Besides, in the series “Solubility in water”, the solubility in water is 0.002%. Moreover, in series [2] (octanol as common model of lipids), the solubility in fats entry is recorded as “no more than 0.001%”. Moreover, the Complete cure result in series [3] (0.002% aqueous solution) was “Absent”.

With `N#CSc1cc(C=Nc2c[nH]c(=O)nc2O)c(O)c(SC#N)c1` [presented preparation], in series [1] (setting [8]), the “growth from control inoculations on nutrient medium (Sabouraud)” value was “did not lead to a growth on the nutrient medium” and the “growth of test organisms on the boards” value is reported as “No growth of the test organisms was registered”. Also, in the series with Candida fungi (0.1% aqueous solution), the Complete cure result is recorded as “Reached” and the “Mycological cure (reduction in the number of fungi inoculated on a solid medium)” value is given as “A tenfold reduction in the number”. The “Number of colonies (in different dilutions) 10^−2” value in the series with Aspergillus niger (lung homogenate day 5, Saburo medium, 0.1% aqueous solution, inhalation 30 min once daily for 3 days, groups E1-E3) is 2 and 4. Besides, in the series “Solubility in water”, the solubility in water was 0.3-0.4%. Moreover, in the series “Solubility in water” (water and oil solutions), the “increase in solubility versus prototype” value is “more than a hundred-fold”. Further, the “solubility for oil solutions” value in series [2] (oil solutions) is on record as 0.25-0.3%. In addition, in series [4] (setting [9]), the inflammatory manifestations entry is “disappearance of inflammatory manifestations was reported” and the “size of affected areas” value is “the affected areas ceased to increase”. Besides, the “growth from inoculations of swabs from the affected area after treatment” value in series [4] (0.1% aqueous solution three times a day for 6 days, nutrient media) is reported as “did not lead to growth on nutrient media”. For the same molecule, the Complete cure entry in series [3] (0.1% oil (olive oil) solution) is “Reached”. Also, in the series with Leveillula taurica, the “growth of fungi after flushing off the leaf and inoculation on a nutrient medium” value is reported as “no growth of the fungi was observed”. Moreover, in the series with Leveillula taurica (observation three more weeks), the “increase or spread of the fungus on the plant” value is recorded as “no increase or spread of the fungus to other parts of the plant occur”.
